Assay results: patent publication US20240109865A1, “INDAZOLE COMPOUNDS AS KINASE INHIBITORS” (TYRA BIOSCIENCES, INC., priority 2020, published 2024)

Experiments:
Experiment in all cases: Kinase assay, binding constants (Kd), kinase-tagged T7 phage, qPCR
[1] = molecular target: FGFR2 (Homo sapiens (Human), UniProt P21802)
Procedure, shortened: (§1)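 Competition binding: T7 phage-tagged kinase + biotin-ligand beads + compound (11 pts, 3-fold, 0.9% DMSO). Elution 30 min RT with free ligand; qPCR quantitation. Kd via Hill fit, slope −1.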

[2] = molecular target: FGFR1 (Homo sapiens (Human), UniProt P11362)
Procedure, shortened: as §1

[3] = molecular target: FGFR4 (Homo sapiens (Human), UniProt P22455)
Procedure, shortened: as §1

[4] = molecular target: FGFR3 (Homo sapiens (Human), UniProt P22607)
Procedure, shortened: as §1

[5] = molecular target: FGFR3 (V555M) (Homo sapiens (Human), UniProt P22607, V555M); details: V555M mutant
Procedure, shortened: as §1

Chain of FGFR1 (P11362 22-822): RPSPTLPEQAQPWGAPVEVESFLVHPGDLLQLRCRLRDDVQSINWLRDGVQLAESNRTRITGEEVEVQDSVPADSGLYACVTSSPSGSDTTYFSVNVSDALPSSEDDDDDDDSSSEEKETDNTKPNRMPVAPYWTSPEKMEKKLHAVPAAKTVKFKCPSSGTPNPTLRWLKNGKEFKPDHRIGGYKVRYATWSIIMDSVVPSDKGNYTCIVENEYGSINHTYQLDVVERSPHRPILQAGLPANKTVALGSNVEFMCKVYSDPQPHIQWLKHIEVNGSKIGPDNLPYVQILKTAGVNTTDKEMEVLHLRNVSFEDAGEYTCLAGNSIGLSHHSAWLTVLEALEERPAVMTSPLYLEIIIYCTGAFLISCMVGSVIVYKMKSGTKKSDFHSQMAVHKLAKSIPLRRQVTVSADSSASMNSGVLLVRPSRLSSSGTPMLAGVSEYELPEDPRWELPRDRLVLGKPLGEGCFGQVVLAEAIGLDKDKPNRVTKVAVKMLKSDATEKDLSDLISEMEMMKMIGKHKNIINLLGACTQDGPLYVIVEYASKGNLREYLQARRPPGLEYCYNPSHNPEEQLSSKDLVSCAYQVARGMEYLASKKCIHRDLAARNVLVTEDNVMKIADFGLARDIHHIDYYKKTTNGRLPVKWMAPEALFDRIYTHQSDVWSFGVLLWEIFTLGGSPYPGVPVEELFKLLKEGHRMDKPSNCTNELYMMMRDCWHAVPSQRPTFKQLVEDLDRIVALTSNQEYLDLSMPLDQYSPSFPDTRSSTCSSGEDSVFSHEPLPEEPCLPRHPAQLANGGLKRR
Chain of FGFR2 (P21802 22-821): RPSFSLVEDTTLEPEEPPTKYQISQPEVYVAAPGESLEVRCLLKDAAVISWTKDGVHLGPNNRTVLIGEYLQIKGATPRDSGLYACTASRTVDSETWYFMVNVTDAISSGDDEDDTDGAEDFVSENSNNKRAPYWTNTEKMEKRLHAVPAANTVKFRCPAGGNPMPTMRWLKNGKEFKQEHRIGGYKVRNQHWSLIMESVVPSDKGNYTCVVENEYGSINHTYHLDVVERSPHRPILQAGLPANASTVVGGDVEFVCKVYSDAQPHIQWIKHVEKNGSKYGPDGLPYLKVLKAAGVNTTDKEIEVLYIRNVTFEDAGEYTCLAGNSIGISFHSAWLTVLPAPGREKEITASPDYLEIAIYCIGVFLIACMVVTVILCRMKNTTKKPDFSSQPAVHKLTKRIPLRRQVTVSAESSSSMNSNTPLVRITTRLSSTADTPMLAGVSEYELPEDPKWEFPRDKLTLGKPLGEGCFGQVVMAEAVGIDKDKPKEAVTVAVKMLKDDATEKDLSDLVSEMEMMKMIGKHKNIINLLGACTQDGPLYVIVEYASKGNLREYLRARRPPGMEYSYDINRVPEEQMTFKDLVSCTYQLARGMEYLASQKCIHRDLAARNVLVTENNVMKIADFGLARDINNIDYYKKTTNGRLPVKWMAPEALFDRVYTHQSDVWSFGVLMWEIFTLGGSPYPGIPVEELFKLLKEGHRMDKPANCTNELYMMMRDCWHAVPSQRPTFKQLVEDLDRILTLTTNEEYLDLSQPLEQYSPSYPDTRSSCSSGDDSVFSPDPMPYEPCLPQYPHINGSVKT
Chain of FGFR3 (P22607 23-806): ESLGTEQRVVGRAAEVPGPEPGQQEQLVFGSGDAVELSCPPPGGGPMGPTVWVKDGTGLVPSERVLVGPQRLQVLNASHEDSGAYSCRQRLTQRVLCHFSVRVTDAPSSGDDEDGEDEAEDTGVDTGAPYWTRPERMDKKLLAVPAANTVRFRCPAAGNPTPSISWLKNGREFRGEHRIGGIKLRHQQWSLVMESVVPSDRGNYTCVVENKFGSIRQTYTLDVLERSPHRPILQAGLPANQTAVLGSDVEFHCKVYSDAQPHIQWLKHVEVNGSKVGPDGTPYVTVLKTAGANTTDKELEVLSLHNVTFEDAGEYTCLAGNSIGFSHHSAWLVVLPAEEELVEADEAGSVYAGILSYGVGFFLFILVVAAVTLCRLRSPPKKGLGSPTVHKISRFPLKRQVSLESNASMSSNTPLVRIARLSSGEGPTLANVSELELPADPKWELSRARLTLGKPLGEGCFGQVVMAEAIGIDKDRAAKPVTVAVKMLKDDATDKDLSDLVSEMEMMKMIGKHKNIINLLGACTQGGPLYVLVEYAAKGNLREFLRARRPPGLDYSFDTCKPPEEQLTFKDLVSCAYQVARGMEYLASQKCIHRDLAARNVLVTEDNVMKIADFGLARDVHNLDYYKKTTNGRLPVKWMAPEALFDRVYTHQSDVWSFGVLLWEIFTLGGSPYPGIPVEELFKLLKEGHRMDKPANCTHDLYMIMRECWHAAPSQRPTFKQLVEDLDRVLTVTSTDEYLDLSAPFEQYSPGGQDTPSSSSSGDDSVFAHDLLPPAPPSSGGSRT
Chain of FGFR3 (V555M) (P22607 23-806 V555M): as the sequence (P22607 23-806) above, with V533M counted along it
Chain of FGFR4 (P22455 22-802): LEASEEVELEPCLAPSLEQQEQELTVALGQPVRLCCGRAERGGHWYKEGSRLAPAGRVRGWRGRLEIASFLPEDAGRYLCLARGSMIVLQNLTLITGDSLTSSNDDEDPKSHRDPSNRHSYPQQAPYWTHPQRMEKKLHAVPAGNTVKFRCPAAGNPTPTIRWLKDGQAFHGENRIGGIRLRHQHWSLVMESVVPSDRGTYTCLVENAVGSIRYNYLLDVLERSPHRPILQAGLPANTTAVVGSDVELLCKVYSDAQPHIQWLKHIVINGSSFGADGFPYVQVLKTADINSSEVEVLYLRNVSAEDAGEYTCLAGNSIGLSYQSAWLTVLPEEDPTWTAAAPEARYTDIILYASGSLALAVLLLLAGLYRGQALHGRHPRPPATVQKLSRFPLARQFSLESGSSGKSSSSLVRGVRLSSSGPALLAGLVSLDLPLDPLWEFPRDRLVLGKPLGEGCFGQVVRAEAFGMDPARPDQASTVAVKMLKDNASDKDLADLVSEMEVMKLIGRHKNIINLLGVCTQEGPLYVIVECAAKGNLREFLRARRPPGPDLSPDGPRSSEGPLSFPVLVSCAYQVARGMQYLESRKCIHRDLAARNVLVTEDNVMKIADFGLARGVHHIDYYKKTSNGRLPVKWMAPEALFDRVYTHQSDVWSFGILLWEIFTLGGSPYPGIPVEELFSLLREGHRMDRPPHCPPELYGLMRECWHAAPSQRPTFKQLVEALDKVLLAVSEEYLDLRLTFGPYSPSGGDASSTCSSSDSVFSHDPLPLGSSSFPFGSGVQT

Kd [1] [nM]	Kd [2] [nM]	Kd [3] [nM]	Kd [4] [nM]	Kd [5] [nM]	Structure (SMILES)
1 to 20	1 to 20	1 to 20	1 to 20	1 to 20	COc1cc2[nH]nc(-c3cnc(N4CC5(C4)CN(S(C)(=O)=O)C5)nc3)c2cc1O[C@H](C)c1c(Cl)cnc(C)c1Cl [Example 240, 5-[(1R)-1-(3,5-dichloro-2-methyl-4-pyridyl)ethoxy]-6-methoxy-3-[2-(2-methylsulfonyl-2,6-diazaspiro[3.3]heptan-6-yl)pyrimidin-5-yl]-1H-indazole]
20 to 100	1 to 20	1 to 20	1 to 20	1 to 20	Cc1ncc(Cl)c([C@@H](C)Oc2ccc3[nH]nc(-c4ccc(N5CCC[C@H]5CO)nc4)c3c2)c1Cl [Example 241, [(2S)-1-[5-[5-[(1R)-1-(3,5-dichloro-2-methyl-4-pyridyl)ethoxy]-1H-indazol-3-yl]-2-pyridyl]pyrrolidin-2-yl]methanol]
1 to 20	1 to 20	1 to 20	1 to 20	1 to 20	COc1cc2[nH]nc(-c3cnc(N4CC5(C4)CN(S(C)(=O)=O)C5)c(F)c3)c2cc1O[C@H](C)c1c(Cl)cncc1Cl [Example 242, 5-[(1R)-1-(3,5-dichloro-4-pyridyl)ethoxy]-3-[5-fluoro-6-(2-methylsulfonyl-2,6-diazaspiro[3.3]heptan-6-yl)-3-pyridyl]-6-methoxy-1H-indazole]
1 to 20	1 to 20	1 to 20	1 to 20	1 to 20	COc1cc2[nH]nc(-c3cnc(N4CC5(C4)CN(S(C)(=O)=O)C5)c(F)c3)c2cc1O[C@H](C)c1c(Cl)cnc(C)c1Cl [Example 243, 5-[(1R)-1-(3,5-dichloro-2-methyl-4-pyridyl)ethoxy]-3-[5-fluoro-6-(2-methylsulfonyl-2,6-diazaspiro[3.3]heptan-6-yl)-3-pyridyl]-6-methoxy-1H-indazole]
20 to 100	20 to 100	1 to 20	1 to 20	1 to 20	Cc1ncc(Cl)c([C@@H](C)Oc2ccc3[nH]nc(-c4cnc(N5CC6(C5)CN(S(C)(=O)=O)C6)c(F)c4)c3c2)c1Cl [Example 244, 5-[(1R)-1-(3,5-dichloro-2-methyl-4-pyridyl)ethoxy]-3-[5-fluoro-6-(2-methylsulfonyl-2,6-diazaspiro[3.3]heptan-6-yl)-3-pyridyl]-1H-indazole]
1 to 20	1 to 20	1 to 20	1 to 20	1 to 20	C[C@@H](Oc1ccc2[nH]nc(-c3ccc(N4CC5(CN(C(=O)C(F)(F)F)C5)C4)nc3)c2c1)c1c(Cl)cncc1Cl [Example 245, 1-[6-[5-[5-[(1R)-1-(3,5-dichloro-4-pyridyl)ethoxy]-1H-indazol-3-yl]-2-pyridyl]-2,6-diazaspiro[3.3]heptan-2-yl]-2,2,2-trifluoro-ethanone]
1 to 20	1 to 20	1 to 20	1 to 20	1 to 20	C[C@@H](Oc1ccc2[nH]nc(-c3ccc(N4CC5(C4)CN(S(C)(=O)=O)C5)nc3)c2c1)c1c(Cl)cnnc1Cl [Example 246, (R)-5-(1-(3,5-dichloropyridazin-4-yl)ethoxy)-3-(6-(6-(methylsulfonyl)-2,6-diazaspiro[3.3]heptan-2-yl)pyridin-3-yl)-1H-indazole]
20 to 100	20 to 100	1 to 20	1 to 20	1 to 20	Cc1ncc(Cl)c([C@@H](C)Oc2ccc3[nH]nc(-c4ccc(N5CC6(CCC(O)C6)C5)nc4)c3c2)c1Cl (stereo partly drawn) [Example 247, 2-[5-[5-[(1R)-1-(3,5-dichloro-2-methyl-4-pyridyl)ethoxy]-1H-indazol-3-yl]-2-pyridyl]-2-azaspiro[3.4]octan-6-ol]
20 to 100	20 to 100	1 to 20	1 to 20	1 to 20	Cc1cc(-c2n[nH]c3ccc(O[C@H](C)c4c(Cl)cncc4Cl)cc23)cnc1N1CC2(C1)CN(S(C)(=O)=O)C2 [Example 248, 5-[(1R)-1-(3,5-dichloro-4-pyridyl)ethoxy]-3-[5-methyl-6-(2-methylsulfonyl-2,6-diazaspiro[3.3]heptan-6-yl)-3-pyridyl]-1H-indazole]
20 to 100	20 to 100	1 to 20	1 to 20	1 to 20	C[C@@H](Oc1ccc2[nH]nc(-c3ccc(N4CC(C(F)(F)F)C4)nc3)c2c1)c1c(Cl)cncc1Cl [Example 249, (R)-5-(1-(3,5-dichloropyridin-4-yl)ethoxy)-3-(6-(3-(trifluoromethyl)azetidin-1-yl)pyridin-3-yl)-1H-indazole]
1 to 20	1 to 20	1 to 20	1 to 20	1 to 20	COc1cc2[nH]nc(-c3cnc(N4CC5(C4)CN(S(C)(=O)=O)C5)c(C)c3)c2cc1O[C@H](C)c1c(Cl)cncc1Cl [Example 250, 5-[(1R)-1-(3,5-dichloro-4-pyridyl)ethoxy]-6-methoxy-3-[5-methyl-6-(2-methylsulfonyl-2,6-diazaspiro[3.3]heptan-6-yl)-3-pyridyl]-1H-indazole]
1 to 20	1 to 20	1 to 20	1 to 20	1 to 20	Cc1cc2[nH]nc(-c3ccc(N4CC5(C4)CN(S(C)(=O)=O)C5)nc3)c2cc1O[C@H](C)c1c(Cl)cncc1Cl [Example 251, (R)-5-(1-(3,5-dichloropyridin-4-yl)ethoxy)-6-methyl-3-(6-(6-(methylsulfonyl)-2,6-diazaspiro[3.3]heptan-2-yl)pyridin-3-yl)-1H-indazole]
20 to 100	20 to 100	1 to 20	1 to 20	1 to 20	C[C@@H](Oc1ccc2[nH]nc(-c3ccc(N4CC(C(F)F)C4)nc3)c2c1)c1c(Cl)cncc1Cl [Example 252, (R)-5-(1-(3,5-dichloropyridin-4-yl)ethoxy)-3-(6-(3-(difluoromethyl)azetidin-1-yl)pyridin-3-yl)-1H-indazole]
1 to 20	1 to 20	1 to 20	1 to 20	1 to 20	C[C@@H](Oc1ccc2[nH]nc(-c3ccc(N4CC(C#N)C4)nc3)c2c1)c1c(Cl)cncc1Cl [Example 253, (R)-1-(5-(5-(1-(3,5-dichloropyridin-4-yl)ethoxy)-1H-indazol-3-yl)pyridin-2-yl)azetidine-3-carbonitrile]
100 to 300	> 300	> 300	20 to 100	1 to 20	Cc1cc2[nH]nc(-c3cnc(N4CC5(C4)CN(S(C)(=O)=O)C5)c(F)c3)c2cc1O[C@@H](C)c1c(Cl)cnnc1Cl [Example 254, (S)-5-(1-(3,5-dichloropyridazin-4-yl)ethoxy)-3-(5-fluoro-6-(6-(methylsulfonyl)-2,6-diazaspiro[3.3]heptan-2-yl)pyridin-3-yl)-6-methyl-1H-indazole]
1 to 20	1 to 20	1 to 20	1 to 20	1 to 20	C[C@@H](Oc1cc2c(-c3ccc(N4CC5(C4)CN(S(C)(=O)=O)C5)nc3)n[nH]c2cc1F)c1c(Cl)cncc1Cl [Example 255, (R)-5-(1-(3,5-dichloropyridin-4-yl)ethoxy)-6-fluoro-3-(6-(6-(methylsulfonyl)-2,6-diazaspiro[3.3]heptan-2-yl)pyridin-3-yl)-1H-indazole]
